# According to US5240695A, “Use of 2-hydroxy-4-methoxybenzophenone-5-sulphonic acid or its salts for protecting the hair against environmental attacking agents, and especially against light and process for protecting the hair using the compound” (L'Oreal, priority 1988, dated 1993):
# Experiments:
# [1] = Suntest exposure (xenon emitter) of permanent-waved natural hair, 15% extension level in the wet state; details: Example 2 styling foam (0.5 g UVINUL MS 40 in 100 g composition before aerosol packaging), no rinse, 180 hours Suntest, vs foam without UVINUL MS 40
# Protocol: Permanent-waved natural hair receives an application of this foam and then, without this being followed by a rinse, is subjected to 180 hours' exposure to the Suntest, as described in Example 1.
# [2] = Suntest exposure (xenon emitter) of bleached hair, 15% extension level in the wet state; details: 120 hours Suntest; for mean value of the 15% extension level in the wet state: no rinse
smiles,measurement,setting,value
"COc1cc(O)c(C(=O)c2ccccc2)cc1S(=O)(=O)O [UVINUL MS 40, 2-hydroxy-4-methoxybenzophenone-5-sulphonic acid]",mean value of the 15% extension level in the wet state,[1],significant improvement
same,mean values of the 15% extension level in the wet state,"[2]; Example 1 shampoo (1 g/100 g UVINUL MS 40), washed five times, vs shampoo base without UVINUL MS 40",substantial improvement
same,mean value of the 15% extension level in the wet state,"[2]; Example 3 styling gel (0.3 g/100 g UVINUL MS 40), three applications, vs gel without UVINUL MS 40",significant improvement
same,mean value of the 15% extension level in the wet state,"[2]; Example 4 styling spray (1 g/100 g UVINUL MS 40), one application, vs spray without UVINUL MS 40",improved very appreciably
